Experimental data reported in PMC6690547, “The triphenylmethane dye brilliant blue G is only moderately effective at inhibiting amyloid formation by human amylin or at disaggregating amylin amyloid fibrils, but interferes with amyloid assays; Implications for inhibitor design” (PLoS ONE, 2019).

Target: T1, human amylin (h-amylin) (Homo sapiens, UniProt P10997)
T1 construct: gene IAPP; synthetic 37 residue polypeptide with a disulfide bridge connecting Cys-2 and Cys-7 and an amidated C-terminus; measured as amyloid fibrils
T1 sequence (P10997 34-70): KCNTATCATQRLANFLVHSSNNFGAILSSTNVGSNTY
Assay: co-sedimentation of BBG with h-amylin amyloid fibrils (supernatant absorbance at […] nm); supported by TEM/AFM of inhibited and remodeled fibrils and loss of thioflavin-T signal
Assay type: binding
Source text: The result is consistent with binding of BBG to h-amylin amyloid fibers

For `CCOc1ccc(Nc2ccc(/C(=C3C=C/C(=[N+](/CC)Cc4cccc(S(=O)(=O)[O-])c4)C=C/3C)c3ccc(N(CC)Cc4cccc(S(=O)(=O)O)c4)cc3C)cc2)cc1` [BBG, Sodium;3-[[4-[(E)-[4-(4-ethoxyanilino)phenyl]-[4-[ethyl-[(3-sulfonatophenyl)methyl]azaniumylidene]-2-methylcyclohexa-2,5-dien-1-ylidene]methyl]-N-ethyl-3-methylanilino]methyl]benzenesulfonate], the “co-sedimentation of BBG with h-amylin amyloid fibrils (supernatant absorbance at)” value was “significant BBG pellets with the fiber. The result is consistent with binding of BBG to h-amylin amyloid fibers”.
